# Measured values from ChEMBL document CHEMBL1136278, “Synthesis and anticancer effect of B-ring trifluoromethylated flavonoids” (Bioorg Med Chem Lett, 2003).
# Tested on: SGC-7901
# Assay: In vitro anti-cancer activity against SGC-7901 cell
# Format: functional, cell-based
# Conditions: Homo sapiens
row,SMILES,IC50 [µM]
1,COc1ccc2c(c1)O/C(=C\c1ccc(C(F)(F)F)cc1)C2=O,21.2
2,CCCCCCCOc1cc(OCCCCCCC)c2c(=O)cc(-c3ccc(C(F)(F)F)cc3)oc2c1,30.8
3,C=CCOc1ccc2c(=O)cc(-c3ccc(C(F)(F)F)cc3)oc2c1,5.26
4,O=c1cc(-c2ccc(C(F)(F)F)cc2)oc2cc(O)ccc12,17.8
5,CCCCCCCCOc1cc(OCCCCCCCC)c2c(=O)cc(-c3ccc(C(F)(F)F)cc3)oc2c1,18.1
6,CCCOc1ccc2c(=O)cc(-c3ccc(C(F)(F)F)cc3)oc2c1,5.61
7,O=c1cc(-c2ccc(C(F)(F)F)cc2)oc2cc(OCc3ccccc3)cc(OCc3ccccc3)c12,5
8,CCOc1cc(OCC)c2c(=O)cc(-c3ccc(C(F)(F)F)cc3)oc2c1,44
9,COc1cc(O)c2c(=O)cc(-c3ccccc3)oc2c1C(F)(F)F,5.9
10,O=C1/C(=C/c2ccc(C(F)(F)F)cc2)Oc2cc(O)ccc21,4.31
11,CCCCCCCCOc1ccc2c(=O)cc(-c3ccc(C(F)(F)F)cc3)oc2c1,4.16
12,CCOc1ccc2c(=O)cc(-c3ccc(C(F)(F)F)cc3)oc2c1,28.5
13,CCOc1ccc2c(c1)O/C(=C\c1ccc(C(F)(F)F)cc1)C2=O,15.6
14,CCOc1cc(OCC)c2c(=O)c(CC)c(-c3ccc(C(F)(F)F)cc3)oc2c1,72.5
15,CCCOc1cc(OCCC)c2c(=O)cc(-c3ccc(C(F)(F)F)cc3)oc2c1,2.7
16,CCCCCCCCCCOc1cc(OCCCCCCCCCC)c2c(=O)cc(-c3ccc(C(F)(F)F)cc3)oc2c1,9.02
17,CCCOc1cc(OCCC)c2c(=O)c(CCC)c(-c3ccc(C(F)(F)F)cc3)oc2c1,8.64
18,COc1cc(OC)c2c(=O)cc(-c3ccc(C(F)(F)F)cc3)oc2c1,4.37
19,O=c1cc(-c2ccc(C(F)(F)F)cc2)oc2cc(O)cc(O)c12,6.62
20,CC(=O)Oc1c(C(F)(F)F)c(O)c2c(=O)cc(-c3ccccc3)oc2c1C(F)(F)F,8.6
21,CCCCCCCOc1ccc2c(c1)O/C(=C\c1ccc(C(F)(F)F)cc1)C2=O,5.35
22,COc1ccc2c(=O)cc(-c3ccc(C(F)(F)F)cc3)oc2c1,8.28
23,O=C1/C(=C/c2ccc(C(F)(F)F)cc2)Oc2cc(OCc3ccccc3)ccc21,14.7
24,C=CCOc1ccc2c(c1)O/C(=C\c1ccc(C(F)(F)F)cc1)C2=O,3.05
25,COc1cc(OC)c2c(=O)c(C)c(-c3ccc(C(F)(F)F)cc3)oc2c1,10.1
